Results reported in patent US20250325555A1, “Method of Treating Obesity with a Luteinizing Hormone Receptor Agonist” (ICAHN SCHOOL OF MEDICINE AT MOUNT SINAI, priority 2022, published 2025).

Columns and labels:
adipose LHCGR = target: T1, adipose LHCGR (Mus musculus, UniProt P30730); assay: ERK1/2 phosphorylation in differentiated 3T3-L1 adipocytes (Western blot); format: cell-based
T1 construct: host or cells: differentiated 3T3-L1 adipocytes
Description: siRNA KNOCKDOWN: Lentiviral vectors expressing Lhcgr siRNA (ABM 2649609) or siControl (ABM LVP015-G) were used per manufacturer's recommendation.
WESTERN BLOTTING: Proteins were blotted with commercial antibodies (Cell Signaling, Phospho-ERK1/2, 9101S; ERK1/2, 4695S, 1:5000).

3T3-L1 adipocytes [1] = assay: oil droplet accumulation (Oil Red O staining) in 3T3-L1 adipocytes; format: cell-based, mouse; details: 6 nM, 12 hours
Protocol: (§1) In order to study the mechanism of LHCGR activation on body fat, 3T3.L1 pre-adipocytes and adipose organoids were used. Oil Red 0 staining can be used to mark lipid-containing vacuoles and quantify cell lipid content. […] The thickness of the “differentiating cell layer” was measured with QuPath-0.2.3.

human LHCGR = human LHCGR (Homo sapiens, UniProt P22888); details: read-out: EC50, agonistic activity to human LHCGR; cited from earlier work
Sequence of human LHCGR (P22888 27-699): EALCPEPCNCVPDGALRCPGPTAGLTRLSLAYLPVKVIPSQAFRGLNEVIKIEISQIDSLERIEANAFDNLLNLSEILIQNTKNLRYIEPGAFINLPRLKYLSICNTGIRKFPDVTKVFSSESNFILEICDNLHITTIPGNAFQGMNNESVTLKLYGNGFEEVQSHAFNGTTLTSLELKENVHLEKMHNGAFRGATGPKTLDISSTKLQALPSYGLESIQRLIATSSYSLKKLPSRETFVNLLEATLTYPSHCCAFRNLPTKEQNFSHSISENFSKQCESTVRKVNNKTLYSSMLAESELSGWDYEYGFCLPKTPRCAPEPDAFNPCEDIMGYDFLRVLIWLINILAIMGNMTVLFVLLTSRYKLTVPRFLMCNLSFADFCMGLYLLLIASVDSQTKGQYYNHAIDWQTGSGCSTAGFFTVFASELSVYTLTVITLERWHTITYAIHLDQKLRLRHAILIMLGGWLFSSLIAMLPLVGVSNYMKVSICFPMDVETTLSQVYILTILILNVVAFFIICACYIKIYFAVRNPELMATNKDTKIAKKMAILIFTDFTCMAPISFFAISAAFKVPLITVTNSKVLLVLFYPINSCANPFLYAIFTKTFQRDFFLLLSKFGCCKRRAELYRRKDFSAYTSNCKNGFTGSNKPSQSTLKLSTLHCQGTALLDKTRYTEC

3T3-L1 adipocytes [2] = assay: oxygen consumption rate (OCR) on Seahorse Xf96 Analyzer; format: cell-based, mouse; details: pretreated for 1 hour
Protocol: (§2) 3T3-L1 adipocytes were thus pretreated with ORG 43553 for 1 hour before measuring oxygen consumption rate (OCR) on a Seahorse Xf96 Analyzer. […] ORG 43553 increased OCR at baseline and upon oligomycin exposure, indicating mitochondria proton leak—a surrogate for thermogenesis. To confirm increased energy expenditure in vivo, mice (N=6/group) on high-fat diet were acclimated to metabolic cages for 1 day, before being injected subcutaneously with ORG 43553 (17 mg/kg, blue line) or vehicle and monitored for 48 hours.

male C57BL/6 mice = assay: ORG 43553 in male C57BL/6 mice, 9 weeks (Example 8, incl. replication cohort); format: in vivo, mouse
Protocol: Next, the LHCGR agonist ORG 43553 was injected into male C57BL/6 mice (N=24/group) (17 mg/kg, subcutaneous, twice-a-week) for 9 weeks.

[3] = system: C57BL/6 mice fed on high-fat diet; assay: ORG 43553 in C57BL/6 mice on high-fat diet, 9 weeks (Example 6); format: in vivo, mouse; details: 17 mg/kg subcutaneous
Protocol: In order to evaluate the effect of treatment with LHCGR agonist ORG 43553 on body fat in mice, 14-week-old C57BL/6 mice (25 mice/group) were treated with subcutaneous injections of vehicle or ORG 43553 (17 mg/kg), and fed on high-fat diet for 9 weeks.

[4] = system: organoids derived from 3T3-L1 cells; assay: adipose organoids derived from 3T3-L1 cells, thickness of differentiating cell layer; format: cell-based, mouse; details: exposed for 3 days, further differentiated 7 days
Protocol: as §1

mice on high-fat diet = assay: metabolic cages, mice on high-fat diet; format: in vivo, mouse; details: 17 mg/kg subcutaneous, monitored for 48 hours
Protocol: as §2

[5] = 17 mg/kg subcutaneous twice-a-week, 9 weeks

T1 sequence (P30730 27-700): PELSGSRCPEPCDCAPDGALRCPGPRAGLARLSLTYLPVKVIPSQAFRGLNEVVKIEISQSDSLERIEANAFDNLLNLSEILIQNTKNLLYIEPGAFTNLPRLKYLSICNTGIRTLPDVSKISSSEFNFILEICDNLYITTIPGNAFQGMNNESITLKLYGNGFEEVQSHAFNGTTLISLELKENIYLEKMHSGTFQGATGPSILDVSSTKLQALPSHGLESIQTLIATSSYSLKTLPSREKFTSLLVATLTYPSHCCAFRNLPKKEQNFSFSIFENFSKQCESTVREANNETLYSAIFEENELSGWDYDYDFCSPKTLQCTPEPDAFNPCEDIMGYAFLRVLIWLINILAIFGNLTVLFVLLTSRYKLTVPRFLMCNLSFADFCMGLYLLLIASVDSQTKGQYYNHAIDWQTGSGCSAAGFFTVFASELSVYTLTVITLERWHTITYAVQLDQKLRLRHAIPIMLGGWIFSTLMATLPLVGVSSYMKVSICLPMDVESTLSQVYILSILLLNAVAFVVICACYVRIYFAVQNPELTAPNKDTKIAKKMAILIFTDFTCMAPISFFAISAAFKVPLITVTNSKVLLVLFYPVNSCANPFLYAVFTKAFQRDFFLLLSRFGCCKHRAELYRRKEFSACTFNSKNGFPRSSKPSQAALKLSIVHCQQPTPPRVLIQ

- ERK1/2 phosphorylation with LHCGR siRNA knockdown (adipose LHCGR; siLhcgr 3T3-L1 cells): no signal
SMILES: CSc1nc(-c2cccc(NC(=O)CN3CCOCC3)c2)c2c(N)c(C(=O)NC(C)(C)C)sc2n1 [ORG 43553, 5-amino-2-methylsulfanyl-4-[3-(2-morpholin-4-yl-acetylamino)-phenyl]-thieno[2,3-d]pyrimidine-6-carboxylic acid tert-butylamide]
- ERK1/2 phosphorylation (adipose LHCGR; differentiated 3T3-L1 adipocytes): rapidly induced ERK1/2 phosphorylation in a concentration-dependent manner
- oil droplet accumulation (Oil Red O staining) (3T3-L1 adipocytes [1]): reduced oil droplet accumulation
- EC50 (human LHCGR): 3.7 nM
- oxygen consumption rate (OCR) at baseline (3T3-L1 adipocytes [2]): increased
- oxygen consumption rate (OCR) upon oligomycin exposure (3T3-L1 adipocytes [2]): increased
- fat mass (male C57BL/6 mice; [5]): significant reduction
- gWAT (male C57BL/6 mice; [5]): reduced
- iWAT (male C57BL/6 mice; [5]): reduced
- number of adipocytes in iWAT with areas below 4000 μm^2 (male C57BL/6 mice; [5]): greater numbers
- number of adipocytes in iWAT with areas greater than 4000 μm^2 (male C57BL/6 mice; [5]): fewer
- renal WAT (rWAT) (male C57BL/6 mice; [5]): reduced
- fat mass (male C57BL/6 mice; replication cohort): significant reduction
- gWAT (male C57BL/6 mice; replication cohort): reduced
- iWAT (male C57BL/6 mice; replication cohort): reduced
- mWAT (male C57BL/6 mice; replication cohort): reduced
- total mass (male C57BL/6 mice; replication cohort): significant reduction
- diet-induced fat mass [3]: reduced
- gWAT weight [3]: lower
- iWAT weight [3]: lower
- lean mass [3]: but not lean mass
- mWAT weight [3]: lower
- total mass [3]: reduced
- differentiated layer of organoids (thickness) compared to vehicle-treated organoids [4]: substantial reduction
- energy expenditure (EE) (mice on high-fat diet): increased acutely
- oxygen consumption (VO2) (mice on high-fat diet): increased acutely
